Values of other authors in patent publication US7022677B1, “Amide derivatives as growth hormone secretagogues” (Kaken Pharmaceutical Co., Ltd., priority 1999, dated 2006).

How the values were obtained:
growth hormone release = settings: control compound for pharmacophore development
[1] = human, in vivo

Question: With `CC(C)(N)CC(=O)N[C@H]1CCc2ccccc2N(Cc2ccc(-c3ccccc3-c3nn[nH]n3)cc2)C1=O` [L-692,428] as the molecule, how does the “growth hormone releasing activity (active/inactive)” value (growth hormone release) read?
Answer: Its value is “inactive”.

Question: With GHRP-6 as the molecule, how does the oral bioavailability [1] read?
Answer: The oral bioavailability was 0.3%.
